# Experimental data published in US20240150719A1, “MAGNETIC SHEAR BIOREACTOR APPARATUS AND METHODS” (THE BOARD OF REGENTS OF THE UNIVERSITY OF TEXAS SYSTEM, priority 2021, published 2024).
# Entries after “also recorded” stand apart in the source; their conditions may differ.
# Tests used:
# [1] = test system: TNF-α secretion by splenocytes; test: TNF-α cytokine suppression assay: MSCs in static co-culture with LPS- or PHA-activated splenocytes; assay type: cell-based, mouse; settings: for ability of shear treated MSC to suppress TNF-α production: inhibitor 10 μM, six MSC donor lines, compared to Static Vehicle
# Method: FIG. 12 illustrates TNF-αcytokine suppression assays that highlight functional enhancement of MSC immunomodulation. Human MSCs preconditioned by mechanical force (15 dyne/cm2 shear stress for 3 hours) are placed in static co-culture with lipopoly-saccharide (LPS) or phytohaemagglutinin (PHA)-activated splenocytes including macrophages, neutrophils, NK, B, and T cells. […] Lower values correspond to greater anti-inflammatory potency. hBM MSC, human bone marrow MSC; hAF MSC, amniotic fluid MSC; hAD MSC, adipose-derived MSC. P-values calculated by paired t-test, equal variance.
# Asterisks indicate p<0.001 compared to Static Vehicle. n=6 indicates six different MSC donor lines included in data shown.
# (§1) Similarly it was determined utilizing commercially available ELISAs that the media from human MSCs cultures that had been subject to fluid shear stress also contained immunomodulatory proteins, such as prostaglandin E2. In addition, Western blotting confirmed elevated protein levels (translation) of COX2, TSG6, and IL1RN. Actin protein expression levels, which are constant, were used as a control for baseline protein expression. […] It was also determined that this induction could be abrogated by the addition of 10 uM of the NF-kappa B antagonist BAY11-7085 (FIG. 11). Furthermore by utilizing commercially available ELISAs, it was determined that the media from human MSCs cultures that had been subject to fluid shear stress for as little as 3 hours had immunosuppressive activity, as evidenced by the 10-50% reduction in TNF-α when treated hMSCs were co-cultured with activated immune cells from the spleen (FIG. 12).
# COX2 protein = test: Western blot of COX2 protein in fluid shear stressed human MSCs; assay type: cell-based; settings: BAY11-7085 10 μM; human MSC, 8 hours of fluid shear stress
# Method: FIG. 11 illustrates representative Western blots showing increased intracellular COX2 protein, which is reduced by NF-kB antagonist BAY11-7085 (10 μM).
# A pilot study was conducted to provide proof of principle that fluid shear stress can be used to condition stem cells, alter gene expression, and enhance functional activities. To exemplify the conditioning activity of shear stress of the type provided by the present system, but on a much smaller analytical scale, force (shear stress) was applied using custom fabricated slides or IBIDI® small-scale microfluidics channel slides obtained from IBIDI, LLC. (Verona, WI, USA). Human samples were harvested from bone marrow (BM), amniotic fluid (AF), or adipose (AD) tissue, processed for isolation and expansion of hMSC, and stored frozen. […] The number of live cells present was determined using trypan blue dye exclusion. Live cell counts were determined on a hemacytometer and the cells were resuspended to obtain the desired concentration for each assay (see Table 1). […]
# Similarly it was determined utilizing commercially available ELISAs that the media from human MSCs cultures that had been subject to fluid shear stress also contained immunomodulatory proteins, such as prostaglandin E2. […]
# human amniotic fluid MSC = test: Priming agents combined with shear stress: anti-inflammatory signaling in human amniotic MSC line; assay type: cell-based
# Method: FIG. 14 illustrates that priming agents complement shear-induced anti-inflammatory signaling. Darkened bars represent treatment combinations that indicate a substantial induction of the pathway by shear stress and cytokines (IFN-γ, 20 ng/ml; TNF-α, 50 ng/ml). In this low-performance human amniotic MSC line, TSG6 was induced by shear stress only. IDO was induced by IFN-γ only. hAF MSC, human amniotic fluid MSC.
# as §1
compound,measurement,setting,value
CC(C)(C)c1ccc(S(=O)(=O)/C=C/C#N)cc1 [BAY11-7085],ability of shear treated MSC to suppress TNF-α production,[1],abrogate the positive effects of shear stress
same,shear-induced intracellular COX2 protein (Western blot),COX2 protein,abrogated; also recorded: reduced
COc1ccc2c(c1)c(CC(=O)O)c(C)n2C(=O)c1ccc(Cl)cc1 [Indomethacin],ability of shear treated MSC to suppress TNF-α production,[1],abrogate the positive effects of shear stress
CS(=O)(=O)Nc1ccc([N+](=O)[O-])cc1OC1CCCCC1 [NS-398],ability of shear treated MSC to suppress TNF-α production,[1],abrogate the positive effects of shear stress
"CCCCC(C)(C)C(O)C=CC1C(O)CC(=O)C1CC=CCCCC(=O)O (stereo not shown) [dmPGE2, 16,16′-dimethyl prostaglandin E2]",TNF-α production with ectopic dmPGE2,[1]; dmPGE2 10 μM,reduced TNF-α to levels produced in the presence of sheared MSCs; also recorded: mimics MSC suppression
IFN-γ: cytokine used as priming agent,IDO induction,"human amniotic fluid MSC; IFN-γ 20 ng/ml, low-performance human amniotic MSC line",induced
same,induction of COX2 and HMOX1 in sheared MSCs with added priming agent,human amniotic fluid MSC; addition of IFN-γ to sheared MSCs versus MSC not subject to shear,greater induction
